Non-standard residues stand in square brackets, D forms with d. Residues, ends and D or L forms follow the SMILES beside them. *: point of attachment. pNA = O=[N+]([O-])c1ccc(N*)cc1
Tests used:
Human thrombin = biological target: T1, Human thrombin (Homo sapiens, UniProt P00734); experiment: In vitro chromogenic assay for thrombin (S2302 cleavage); format: biochemical; details: 20 nM thrombin; pH 7.5; ambient temperature; substrate concentration stated equal to Km
T1 construct: Human thrombin stock solution; purchased Enzyme Research Lab
Procedure: (§1) The activities were determined as an initial rate of cleavage of the peptide p-nitroanilide by the enzyme. The cleavage product, p-nitroaniline, absorbs at 405 nm with a molar extinction coefficient of 9920 M^-1 cm^-1.
(§2) 50 mM TrisHCl, 150 mM NaCl, 2.5 mM CaCl2, and 0.1% polyethylene glycol 6000, pH 7.5.
2. Human thrombin stock solution: Stored at -80° C. (working solution (2×): 1200 ng/mL or 40 nM in assay buffer, prepare prior to use).
2. S2302 (Thrombin assay) stock solution: 10 mM in deionized H2 O, stored at 4° C. (working solution (4×): 1200 μM in assay buffer).
Assays were performed in 96-well microtiter plates in a total volume of 200 μl. […] Concentrations of the standard inhibitor compound in the assay were from 5 μM to 0.021 μM in 1 to 3 dilution. Concentration of the test compounds in the assay typically were from 10 μM to 0.041 μM in 1 to 3 dilution. For potent test compounds, the concentrations used in the factor Xa assay were further diluted 100 fold (100 nM to 0.41 nM) or 1000 fold (10 nM to 0.041 nM). […]
(§3) The enzyme kinetics were measured at 405 nm at 10 seconds intervals for five minutes in a THERMOmax plate reader at ambient temperature.
(§4) Enzyme rates were calculated as mOD/min based on the first two minutes readings. The IC50 values were determined by fitting the data to the log-logit equation (linear) or the Morrison equation (non-linear) with an EXCEL spread-sheet. […]

[1] = biological target: T2, Human tissue plasminogen activator (tPA) (Two chains, Sigma) (Homo sapiens, UniProt P00750); experiment: In vitro chromogenic assay for tPA (S2288 cleavage); format: biochemical; details: 10 nM tPA; pH 7.5; ambient temperature; substrate concentration stated equal to Km
T2 construct: purchased Sigma
T2 sequence (P00750 311-562 limits assumed): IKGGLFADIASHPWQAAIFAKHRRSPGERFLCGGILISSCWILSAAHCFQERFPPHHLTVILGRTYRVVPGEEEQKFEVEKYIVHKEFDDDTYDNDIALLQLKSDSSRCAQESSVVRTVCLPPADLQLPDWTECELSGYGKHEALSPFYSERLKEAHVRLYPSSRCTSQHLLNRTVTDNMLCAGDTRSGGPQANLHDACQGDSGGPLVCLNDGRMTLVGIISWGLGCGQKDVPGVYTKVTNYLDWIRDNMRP
T2 sequence (P00750 36-310 limits assumed): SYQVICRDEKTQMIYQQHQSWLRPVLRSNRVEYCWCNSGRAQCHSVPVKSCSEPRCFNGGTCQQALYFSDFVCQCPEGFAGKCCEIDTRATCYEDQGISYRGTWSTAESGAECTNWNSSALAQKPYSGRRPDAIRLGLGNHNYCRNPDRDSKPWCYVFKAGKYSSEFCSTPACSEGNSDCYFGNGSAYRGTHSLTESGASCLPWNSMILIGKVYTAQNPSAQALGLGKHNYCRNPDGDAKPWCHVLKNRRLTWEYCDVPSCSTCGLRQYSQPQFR
Procedure: as §1, §2
3. Human tissue plasminogen activator (tPA) (Two chains, Sigma) stock solution: 1 mg/mL, stored at -80° C. (working solution (2×): 1361 ng/mL in assay buffer, prepare prior to use).
3. S2288 (tPA assay) stock solution: 10 mM in deionized H2 O, stored at 4° C. (working solution (4×): 1484 μM in assay buffer).
Assays were performed in 96-well microtiter plates in a total volume of 200 μl. […] Concentrations of the standard inhibitor compound in the assay were from 5 μM to 0.021 μM in 1 to 3 dilution. Concentration of the test compounds in the assay typically were from 10 μM to 0.041 μM in 1 to 3 dilution. […]
as §3, §4

Row | Km (Human thrombin) [µM] | Km [1] [µM] | Compound
1 | 300 | – | N=C(N)NCCC[C@H](NC(=O)[C@H](Cc1ccccc1)NC(=O)[C@H]1CCCN1)C(=O)Nc1ccc([N+](=O)[O-])cc1 [Example S2302] (H-[dP]-Phe-Arg-pNA)
2 | – | 371 | CC[C@@H](C)[C@@H](N)C(=O)N1CCC[C@H]1C(=O)N[C@@H](CCCN=C(N)N)C(=O)Nc1ccc([N+](=O)[O-])cc1 [Example S2288] (H-[dI]-Pro-Arg-pNA)

— patent US6008234A, “Benzamidine derivatives substituted by cyclic amino acid and cyclic hydroxy acid derivatives and their use as anti-coagulants” (Berlex Laboratories, Inc., priority 1997, dated 1999)
